The data set concerns Caco-2 human epithelial colorectal adenocarcinoma cells. As to the kind of experiment: In vitro Caco-2 cell model, transport of (−)-epicatechin. Type of data set: in vitro ADME. Conditions: for concentration of (−)-epicatechin in the basal compartment in comparison to sucrose: 250 μM (−)-epicatechin plus carbohydrate 100 mg/ml on the apical side, 2 h incubation; for concentration of (−)-epicatechin in the basal compartment when in combination with carbohydrate: (−)-epicatechin in combination with selected low glycemic index carbohydrates. The protocol: Caco-2 human epithelial colorectal adenocarcinoma cells were used to investigate the transport of (−)-epicatechin in vitro. Cells were grown in high glucose DMEM supplemented with 20% heat inactivated fetal bovine serum, non-essential amino acids and 2 mM L-glutamine, amphotericin B (1 μg/ml), penicillin (100 U/ml), and streptomycin (100 μg/ml) and maintained at 37° C. and 5% CO2. The medium was replaced every 2 days and the cells were reseeded every 7 days. Then, cells were seeded in 12-well transwell inserts at a density of 20,000 cells per cm^2 and the medium on both sides was replaced every 2 days. After 21 days, cells were already differentiated. On the experiment day, medium was removed and replaced by HBSS supplemented with 25 mM glucose, 10 mM HEPES and 1.8 mM CaCl2. […] Then, (−)-epicatechin (250 μM) alone or plus carbohydrates (5 to 100 mg/ml) were placed in the apical side of the cell monolayers and incubated for 2 h. All compounds were added to the exposure medium from stock solutions in DMSO. The concentration of DMSO at the apical side was kept at 0.05% in each experiment. (−)-Epicatechin was detected in the cell culture media using ultra-performance liquid chromatography using an Acquity UPLC HSS C18 2.1×100 mm, 1.8 μm column (Waters, Switzerland) equipped with HSS C18 VanGuard pre-column (Waters, Switzerland).
(Passage across Caco-2 layers is used to estimate intestinal permeability.)

Turning to `O=C[C@H](O)[C@@H](O)[C@@H](O)[C@H](O)CO` [galactose], the “concentration of (−)-epicatechin in the basal compartment in comparison to sucrose” value (shortened to “concentration of (−)-epicatechin … to sucrose”) was “significant higher concentration of (−)-epicatechin in the basal compartment” and the “concentration of (−)-epicatechin in the basal compartment when in combination with carbohydrate” value (“concentration … with carbohydrate” for short) is “significant increase in the concentration of (−)-epicatechin in the basal compartment”.

In the case of `OC[C@@H](O)[C@@H](O)[C@H](O)[C@@H](O)CO` [sorbitol, D-sorbitol], the “concentration of (−)-epicatechin … to sucrose” value is listed as “significant higher concentration of (−)-epicatechin in the basal compartment” and the “concentration … with carbohydrate” value is reported as “significant increase in the concentration of (−)-epicatechin in the basal compartment”.

As for `OC[C@@H](O)[C@H](O)[C@@H](O)CO` [xylitol], the “concentration of (−)-epicatechin … to sucrose” value is listed as “significant higher concentration of (−)-epicatechin in the basal compartment” and the “concentration … with carbohydrate” value is on record as “significant increase in the concentration of (−)-epicatechin in the basal compartment”.

The values are drawn from US10709159B2, “Increasing the bioavailability of flavan-3-ols with carbohydrates with a low glycemic index” (NESTEC S.A., priority 2012, dated 2020).
